Consider 2 compounds from patent publication US20160220557A1, “USE OF ACETYL-COA CARBOXYLASE INHIBITORS FOR TREATING ACNE VULGARIS” (PFIZER INC., priority 2013, published 2016).

In data set [1] the target is T1, recombinant human ACC1 (rhACC1) (Homo sapiens, UniProt Q13085, DEL44-44).
T1 construct: His6 (N); made in house; host or cells: SF9 insect cells (baculovirus)
The data set is described as follows: Transcreener ADP detection FP assay, recombinant human ACC1 inhibition. The data set is classed as biochemical. The following applies: recombinant human ACC1, 50 μM ATP; read-out: Transcreener Assay hACC1 IC50.

Data set [2] concerns SZ95 human sebocyte cells. The experiment in a line: Inhibition of de novo lipogenesis (14C-acetate incorporation) in cultured human sebocytes. The data set is classed as cell-based. The following applies: for IC50: Homo sapiens, SZ95 sebocytes, 14C-acetate incorporation into lipids relative to vehicle, read-out: C9302E Sebocyte IC50. The procedure:
SZ95 sebocytes were grown in Human Sebocyte Growth Medium (HSGM) (Sebomed® medium (Biochrom: F8205) supplemented with 10% heat-inactivated fetal bovine serum, 1% penicillin/streptomycin, 1 mM calcium chloride and 5 ng/mL recombinant human epidermal growth factor (Life Tech: PHG0311)). At 90% confluence, cells were washed three times with PBS and then detached with 0.05% Trypsin-EDTA. Cells were centrifuged and resuspended in HSGM containing 10% charcoal-stripped serum (Life Tech: 12676-029). Cells were then plated in 24-well plates at a density of 0.25×10^6 cells/well and were incubated overnight to enable cell adherence to the culture plate.
Cells were treated with a dose response of compound, and each dose was assayed in triplicate. Briefly, compounds were dissolved in DMSO stocks and diluted 1:1000 into charcoal-stripped media. 0.1% DMSO without compound was used as the vehicle control. After a 1 hour preincubation with compound or vehicle, 0.25 μCi ^14C-acetic acid (American Radiolabeled Chemicals: ARC0158B) was added to each well. Plates were then incubated for an additional two hours. At the end of the incubation period, cells were removed from incubator, placed on ice, and then washed twice with ice-cold PBS to remove free ^14C-acetic acid. Plates were sealed and stored at −20° C. until analysis.
Plates were shaken for 1 hour at room temperature to induce lysis. Lysates were transferred to individual 1.5 mL polypropylene tubes, and wells were washed with 175 μl of PBS, which was added to lysates. 450 μl of a 1:1 (v/v) chloroform:methanol solution was then added to each tube, and then all tubes were vortexed for 10 seconds and centrifuged at 20,000×g for 5 minutes at room temperature to separate aqueous from organic phase. A 25 μl aliquot was removed from the bottom organic layer of each sample and added to 6 mL OptiPhase supermix (PerkinElmer: 1200-439) scintillation fluid. Counts of ^14C incorporated into lipids were assessed by scintillation counting. DNL (counts of ^14C incorporated into lipids) was expressed for compound treated cells relative to DNL in the vehicle control treated cells for determination of EC50 values. For a subset of the compounds tested, a second aliquot (3×35 μl) of the organic layer of each sample was removed and applied to a TLC lane (Analtech Silica Gel G Plates). Radiolabeled lipids were resolved using a 2-solvent system. Solvent 1 contained a 100:100:100:40:36 mixture of ethyl acetate:isopropyl alcohol:CHCl3:MeOH:0.25% KCl and solvent 2 a 70:27:3 hexane:diethyl ether:acetic acid mix. The TLC plate was dried under nitrogen for 30 minutes and [^14C]-calibrators added to a vacant lane. Bands were visualized and quantitated using a Molecular Dynamics' Storm 860 Phosphorimager system following 18-36 hours exposure to a Phosphorimager screen.

The target of the next data set is hACC1 (Homo sapiens, UniProt Q13085). The data set is described as follows: Radiometric ACC1 inhibition assay. The data set is classed as biochemical.
Another data set deals with hACC2 (Homo sapiens, UniProt O00763). The data set is described as follows: Radiometric ACC2 inhibition assay. The class given is biochemical.
Sequence of hACC2 (O00763 whole entry): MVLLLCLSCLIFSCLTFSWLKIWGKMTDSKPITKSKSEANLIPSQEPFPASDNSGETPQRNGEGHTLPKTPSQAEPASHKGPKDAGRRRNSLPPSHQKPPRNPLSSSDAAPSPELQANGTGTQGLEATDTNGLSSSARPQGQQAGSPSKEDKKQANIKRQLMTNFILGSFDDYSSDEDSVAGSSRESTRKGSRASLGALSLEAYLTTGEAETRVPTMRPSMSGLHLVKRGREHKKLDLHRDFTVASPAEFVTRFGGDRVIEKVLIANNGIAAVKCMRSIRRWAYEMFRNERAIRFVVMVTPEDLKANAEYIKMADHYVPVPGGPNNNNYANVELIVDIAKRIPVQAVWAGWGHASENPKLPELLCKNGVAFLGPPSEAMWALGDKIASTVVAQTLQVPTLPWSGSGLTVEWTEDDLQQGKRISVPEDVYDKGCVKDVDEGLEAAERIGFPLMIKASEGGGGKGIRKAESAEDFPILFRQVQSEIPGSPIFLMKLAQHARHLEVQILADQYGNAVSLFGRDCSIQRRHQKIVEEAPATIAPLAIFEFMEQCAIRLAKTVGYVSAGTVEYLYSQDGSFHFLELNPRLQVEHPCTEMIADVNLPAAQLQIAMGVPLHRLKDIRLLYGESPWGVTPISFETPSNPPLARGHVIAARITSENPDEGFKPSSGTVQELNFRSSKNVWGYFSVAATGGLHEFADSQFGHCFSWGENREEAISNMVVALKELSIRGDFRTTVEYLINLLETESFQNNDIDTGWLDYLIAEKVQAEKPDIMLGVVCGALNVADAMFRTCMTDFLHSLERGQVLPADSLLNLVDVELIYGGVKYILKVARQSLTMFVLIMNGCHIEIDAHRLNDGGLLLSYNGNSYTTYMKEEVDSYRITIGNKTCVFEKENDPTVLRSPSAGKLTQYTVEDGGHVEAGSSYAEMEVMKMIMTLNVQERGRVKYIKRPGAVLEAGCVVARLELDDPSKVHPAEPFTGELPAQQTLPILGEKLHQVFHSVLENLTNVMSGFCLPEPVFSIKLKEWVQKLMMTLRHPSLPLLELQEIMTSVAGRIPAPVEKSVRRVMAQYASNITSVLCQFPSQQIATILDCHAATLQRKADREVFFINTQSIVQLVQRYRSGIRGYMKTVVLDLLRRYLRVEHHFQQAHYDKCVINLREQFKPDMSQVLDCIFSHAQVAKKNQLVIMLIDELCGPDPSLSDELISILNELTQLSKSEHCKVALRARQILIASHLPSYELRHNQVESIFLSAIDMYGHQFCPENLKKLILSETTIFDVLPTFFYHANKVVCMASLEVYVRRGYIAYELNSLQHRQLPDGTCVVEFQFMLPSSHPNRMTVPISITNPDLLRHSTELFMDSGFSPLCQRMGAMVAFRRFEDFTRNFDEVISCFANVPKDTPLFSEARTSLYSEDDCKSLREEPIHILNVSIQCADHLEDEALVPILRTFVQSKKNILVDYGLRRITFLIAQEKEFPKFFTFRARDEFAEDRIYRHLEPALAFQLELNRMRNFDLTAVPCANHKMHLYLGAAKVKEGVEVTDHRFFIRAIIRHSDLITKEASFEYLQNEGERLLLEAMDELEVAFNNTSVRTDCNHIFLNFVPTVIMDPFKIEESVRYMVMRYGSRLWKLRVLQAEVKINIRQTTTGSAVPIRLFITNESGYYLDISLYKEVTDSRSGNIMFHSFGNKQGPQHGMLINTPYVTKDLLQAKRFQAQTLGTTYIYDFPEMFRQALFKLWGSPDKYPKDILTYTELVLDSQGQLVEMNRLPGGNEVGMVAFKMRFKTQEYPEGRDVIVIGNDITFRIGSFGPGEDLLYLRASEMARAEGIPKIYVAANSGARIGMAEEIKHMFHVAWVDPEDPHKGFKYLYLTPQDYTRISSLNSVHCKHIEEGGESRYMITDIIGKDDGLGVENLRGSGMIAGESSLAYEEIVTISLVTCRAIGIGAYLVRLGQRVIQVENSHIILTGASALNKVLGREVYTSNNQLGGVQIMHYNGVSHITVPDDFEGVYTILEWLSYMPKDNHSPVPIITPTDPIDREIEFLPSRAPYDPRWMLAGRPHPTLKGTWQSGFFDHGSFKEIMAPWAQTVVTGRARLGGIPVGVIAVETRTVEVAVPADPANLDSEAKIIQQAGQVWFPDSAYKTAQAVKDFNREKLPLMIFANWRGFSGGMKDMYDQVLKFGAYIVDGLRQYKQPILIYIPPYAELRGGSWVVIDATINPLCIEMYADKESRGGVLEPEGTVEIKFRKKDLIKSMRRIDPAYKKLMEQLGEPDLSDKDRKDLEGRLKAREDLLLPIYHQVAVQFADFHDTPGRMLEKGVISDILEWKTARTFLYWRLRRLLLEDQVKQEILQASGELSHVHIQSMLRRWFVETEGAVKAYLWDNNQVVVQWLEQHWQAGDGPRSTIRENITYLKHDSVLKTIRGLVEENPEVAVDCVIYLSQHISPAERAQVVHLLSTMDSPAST
Another data set has as its target T2, CYP2C8 (Homo sapiens, UniProt P10632).
T2 construct: from tissue; host or cells: liver microsomes
T2 sequence (P10632 1-490): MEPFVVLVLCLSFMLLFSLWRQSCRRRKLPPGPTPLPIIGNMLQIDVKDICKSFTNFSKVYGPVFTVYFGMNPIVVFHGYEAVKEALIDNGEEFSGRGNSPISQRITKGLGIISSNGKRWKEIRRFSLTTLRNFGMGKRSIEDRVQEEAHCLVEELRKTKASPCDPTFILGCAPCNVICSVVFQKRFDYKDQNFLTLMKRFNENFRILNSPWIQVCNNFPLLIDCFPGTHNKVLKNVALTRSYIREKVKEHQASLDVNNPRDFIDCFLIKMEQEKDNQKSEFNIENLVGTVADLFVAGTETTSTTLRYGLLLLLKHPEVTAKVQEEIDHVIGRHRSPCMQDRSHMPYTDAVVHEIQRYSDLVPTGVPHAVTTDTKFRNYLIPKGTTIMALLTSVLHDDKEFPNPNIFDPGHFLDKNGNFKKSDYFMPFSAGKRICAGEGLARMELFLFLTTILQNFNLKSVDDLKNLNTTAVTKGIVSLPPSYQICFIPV
The experiment in a line: P450 inhibition in liver microsomes with probe substrates. The class given is in vitro ADME. In general terms: Microsomes from liver hold many membrane-bound enzymes, among them those of drug oxidation.

A short description of data set [3]: Human studies: safety, tolerability and pharmacokinetics after oral dosing. The following applies: for median Tmax: oral.

Broadly, the IC50 is the concentration that gives 50% inhibition.

Take `Cc1nc2ccc(C(=O)N3CCC4(CC3)CC(=O)c3c(cnn3C(C)C)C4)cc2[nH]1` [Example 1, 1-isopropyl-1′-(2-methyl-1H-benzo[d]imidazole-5-carbonyl)-4,6-dihydrospiro[indazole-5,4′-piperidin]-7(1H)-one]: the IC50 was 98 nM in data set [1]; 679 nM in data set [2]; 11 nM against hACC1; 27 nM on hACC2; above 30000 nM at CYP2C8. For the same compound, the “median Tmax” value lay in the range of 1 to 2 h in data set [3] (fasted state) and 3 to 4 h in data set [3] (fed state). Also, in data set [3] (single doses up to 800 mg, repeated doses up to 400 mg/day), the maximum tolerated dose entry is “not established”.
Consider `CC(C)n1ncc2c1C(=O)CC1(CCN(C(=O)c3ccc4ccc(N)nc4c3)CC1)C2` [Example 3, 1′-(2-aminoquinoline-7-carbonyl)-1-isopropyl-4,6-dihydrospiro[indazole-5,4′-piperidin]-7(1H)-one], for which the values for the IC50 (in data set [2]; at hACC1; against hACC2) were 90 nM, 5 nM and 5 nM, respectively. Moreover, in data set [2] (SZ95 cells, TLC, vs. vehicle), the “incorporation of 14C-acetate into free cholesterol” value was “did not alter”. Moreover, in data set [2] (TLC, cholesterol esters, triglycerides, free fatty acids, diglycerides, monoglyceride, phospholipid, vs. vehicle), the “incorporation of 14C-acetate into SZ95 cell lipid species containing or comprised of fatty acids” value is listed as “clear inhibition”.
